Test results from patent US20240392271A1, “ENGINEERED CASX REPRESSOR SYSTEMS” (Scribe Therapeutics Inc., priority 2021, published 2024).

How the values were obtained:
HBEGF locus = format: cell-based, human; conditions: dCasX491-KRAB lentiviral library, spacer 34.28, HEK293T, 2 ng/ml diphtheria toxin 48 hours
B2M promoter = experiment: B2M repression with gRNAs tiled across the B2M promoter, dXR1 vs ELXR #1 (Example 10); format: cell-based, human; conditions: HEK293T, six days after lipofection, unlike the effects seen with dXR1
Procedure: ELXR #1 containing the ZIM3-KRAB domain, as described in Example 6, and dXR1, as described in Example 1, were assessed in this experiment. Various gRNAs with scaffold 174 containing a B2M-targeting spacer were used in this experiment.
The next day, cells were selected with puromycin for four additional days. […] HEK293T cells transfected with either ELXR #1 or dXR1 with a non-targeting gRNA was included as an experimental control. FIG. 21A is a schematic illustrating the tiling of the various B2M-targeting gRNAs (spacers listed in Table 31) within a ˜1 KB window of the B2M promoter.

| Substance | log2 (fold change) in abundance of the KRAB domain before and after selection (HBEGF locus) | B2M repression (HLA-negative cells) mediated by ELXR #1 with the spacer (B2M promoter) |
| --- | --- | --- |
| Zim3: ZIM3 KRAB domain, SEQ ID NO: 337 [reference compound] | 1.7787 | – |
| spacer 7.165: B2M-targeting, ELXR-specific spacer, UCCCUAUGUCCUUGCUGUUU, SEQ ID NO: 59667 (listed as RNA, chemistry not fully specified) | – | meaningful B2M repression |
